Measurements from paper PMC11868595, “Safety, pharmacokinetics and efficacy of HA121-28 in patients with advanced solid tumors and RET fusion-positive non-small-cell lung cancer: a multicenter, open-label, single-arm phase 1/2 trial” (Signal Transduction and Targeted Therapy, 2025).

Columns and labels:
EGFR = EGFR (Homo sapiens, UniProt P00533); assay: Tyrosine kinase inhibition; assay type: biochemical
Ames test = conditions: in vitro Ames test
[1] = system: patients of phase 1 and phase 2 trials; assay: Phase 1/2 pooled TRAEs with or without previous immunotherapy; assay type: in vivo, human
Procedure: Treatment-emergent adverse events (TEAEs) were documented during the entire study period. The predefined adverse event of special interest (AESI) was ≥ grade 3 prolonged QT interval. Tumor imaging was performed using contrast-enhanced computed tomography or magnetic resonance imaging at screening, Day 28 of the first cycle, then approximately every eight weeks till the end of the study for phase 1; in phase 2, imaging was scheduled at screening, and every eight weeks during the first 40 weeks, followed by every 12 weeks for the rest of the study period. RECIST 1.1 was used by the independent review committee or investigators for assessment of tumor response. After the original assessment, a repeated assessment was required around four weeks later to confirm a complete or partial response.
The full analysis set consisted of all patients who had administered at least one dose of HA121-28 and was used to calculate the baseline characteristics, OS, and PFS results. The safety set included all patients who had administered at least one dose of the HA121-28 and had at least one safety-related observation. This population was used for analysis of TEAEs. The efficacy evaluable set consisted of patients who had administered at least one dose of HA121-28 and completed at least one efficacy assessment following study treatment. This population was used to calculate the ORR, DOR, and DCR. In addition, the ORRs for subgroup analyses, including age ( < 60, ≥60), ECOG PS (0 or 1), gender (male or female), prior treatment with TKIs (yes or no), brain or liver metastasis (yes or no), were also calculated. The plasma drug concentration-time profile was characterized using PK concentration set that included patients who had administered at least one dose of HA121-28 and had at least one measurable plasma concentration of HA121-28. The PK parameter set was used to calculate PK parameters, which consisted of patients who had administered at least one dose of HA121-28 with at least one valid PK parameter. ORR and DCR were described using the Clopper-Pearson method with two-sided 95% confidence intervals (CIs). PFS and DOR were assessed using the Kaplan-Meier method, including an estimate of the median, along with corresponding 95% CIs. Statistical analyses of clinical outcomes were conducted by SAS (version 9.4 or later) and R software 4.1.0 for genomic DNA from pre-treatment tumor tissue (http://cran.r-project.org).

[2] = system: EGFR signaling in tumor tissue; assay: PK/PD in plasma and tumor tissue of tumor-bearing mice; assay type: in vivo; conditions: after a single dose, 25 and 50 mg/kg
[3] = With prior immunotherapy treatment (N=43)
[4] = Without prior immunotherapy treatment (N=165)

EGFR, sequence (P00533 25-1210): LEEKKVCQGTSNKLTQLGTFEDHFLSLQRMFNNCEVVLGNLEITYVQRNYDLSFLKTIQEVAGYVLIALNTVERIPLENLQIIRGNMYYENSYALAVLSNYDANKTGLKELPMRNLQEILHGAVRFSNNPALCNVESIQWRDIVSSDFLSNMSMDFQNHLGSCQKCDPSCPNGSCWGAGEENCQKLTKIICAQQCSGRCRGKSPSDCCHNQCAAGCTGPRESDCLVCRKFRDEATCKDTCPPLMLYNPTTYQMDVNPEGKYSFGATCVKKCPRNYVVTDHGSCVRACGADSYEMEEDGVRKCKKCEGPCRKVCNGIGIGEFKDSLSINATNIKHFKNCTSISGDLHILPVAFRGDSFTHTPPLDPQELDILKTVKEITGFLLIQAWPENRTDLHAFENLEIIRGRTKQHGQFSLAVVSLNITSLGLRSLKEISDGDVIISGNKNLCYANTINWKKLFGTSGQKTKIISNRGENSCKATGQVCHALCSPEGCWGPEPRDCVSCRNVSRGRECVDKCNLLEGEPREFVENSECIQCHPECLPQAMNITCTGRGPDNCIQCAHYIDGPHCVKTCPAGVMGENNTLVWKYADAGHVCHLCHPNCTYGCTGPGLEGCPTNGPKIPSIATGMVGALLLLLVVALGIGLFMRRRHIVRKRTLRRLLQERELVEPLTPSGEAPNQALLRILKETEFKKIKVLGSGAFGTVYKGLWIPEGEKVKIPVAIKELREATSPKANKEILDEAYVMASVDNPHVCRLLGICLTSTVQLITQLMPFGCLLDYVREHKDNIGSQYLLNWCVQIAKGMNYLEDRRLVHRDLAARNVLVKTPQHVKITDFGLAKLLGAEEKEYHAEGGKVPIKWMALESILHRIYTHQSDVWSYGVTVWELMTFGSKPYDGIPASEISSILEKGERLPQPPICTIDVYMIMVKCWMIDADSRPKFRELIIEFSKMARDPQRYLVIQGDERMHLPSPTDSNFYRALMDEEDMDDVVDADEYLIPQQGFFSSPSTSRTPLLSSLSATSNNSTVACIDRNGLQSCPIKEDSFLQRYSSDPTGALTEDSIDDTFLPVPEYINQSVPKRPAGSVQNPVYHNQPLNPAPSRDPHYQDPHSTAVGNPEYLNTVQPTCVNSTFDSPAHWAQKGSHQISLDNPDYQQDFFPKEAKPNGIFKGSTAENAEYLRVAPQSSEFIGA

Structure (SMILES): COc1cc2c(Nc3ccc(Br)cc3F)ncnc2cc1OCCCCN(C)C.Cl.Cl [HA121-28, N-(4-bromo-2-fluorophenyl)-7-(4-(dimethylamino)butoxy)-6-methoxy quinazolin-4-amine dihydrochloride]
- IC50 (EGFR): 46.6 nM
- genetic toxicity (Ames test): negative
- incidence of ≥ grade-3 TRAE ([1]; 43 patients with previous immunotherapy): 58.1%
- incidence of ≥ grade-3 TRAE ([1]; 165 patients without previous immunotherapy): 41.2%
- TRAE, All: ALT increased [1, 3]: 22 (51.2) count (percentage)
- TRAE, All: AST increased [1, 3]: 19 (44.2) count (percentage)
- TRAE, All: Anemia [1, 3]: 5 (11.6) count (percentage)
- TRAE, All: Any [1, 3]: 42 (97.7) count (percentage)
- TRAE, All: Blood creatinine increased [1, 3]: 11 (25.6) count (percentage)
- TRAE, All: Decreased appetite [1, 3]: 7 (16.3) count (percentage)
- TRAE, All: Decreased lymphocyte counts [1, 3]: 5 (11.6) count (percentage)
- TRAE, All: Diarrhea [1, 3]: 32 (74.4) count (percentage)
- TRAE, All: Fatigue [1, 3]: 6 (14.0) count (percentage)
- TRAE, All: Hypertension [1, 3]: 5 (11.6) count (percentage)
- TRAE, All: Hypoalbuminemia [1, 3]: 5 (11.6) count (percentage)
- TRAE, All: Hypokalemia [1, 3]: 9 (20.9) count (percentage)
- TRAE, All: Nausea [1, 3]: 6 (14.0) count (percentage)
- TRAE, All: Neutrophil counts decreased [1, 3]: 7 (16.3) count (percentage)
- TRAE, All: Platelet counts decreased [1, 3]: 7 (16.3) count (percentage)
- TRAE, All: Prolonged QT interval [1, 3]: 23 (53.5) count (percentage)
- TRAE, All: Proteinuria [1, 3]: 17 (39.5) count (percentage)
- TRAE, All: Rash [1, 3]: 31 (72.1) count (percentage)
- TRAE, All: Vomiting [1, 3]: 7 (16.3) count (percentage)
- TRAE, All: Weight loss [1, 3]: 6 (14.0) count (percentage)
- TRAE, All: White blood cell counts decreased [1, 3]: 7 (16.3) count (percentage)
- TRAE, ≥ Grade 3: ALT increased [1, 3]: 1 (2.3) count (percentage)
- TRAE, ≥ Grade 3: AST increased [1, 3]: 1 (2.3) count (percentage)
- TRAE, ≥ Grade 3: Anemia [1, 3]: 0 count (percentage)
- TRAE, ≥ Grade 3: Any [1, 3]: 25 (58.1) count (percentage)
- TRAE, ≥ Grade 3: Blood creatinine increased [1, 3]: 0 count (percentage)
- TRAE, ≥ Grade 3: Decreased appetite [1, 3]: 0 count (percentage)
- TRAE, ≥ Grade 3: Decreased lymphocyte counts [1, 3]: 0 count (percentage)
- TRAE, ≥ Grade 3: Diarrhea [1, 3]: 4 (9.3) count (percentage)
- TRAE, ≥ Grade 3: Fatigue [1, 3]: 0 count (percentage)
- TRAE, ≥ Grade 3: Hypertension [1, 3]: 0 count (percentage)
- TRAE, ≥ Grade 3: Hypoalbuminemia [1, 3]: 0 count (percentage)
- TRAE, ≥ Grade 3: Hypokalemia [1, 3]: 3 (7.0) count (percentage)
- TRAE, ≥ Grade 3: Nausea [1, 3]: 0 count (percentage)
- TRAE, ≥ Grade 3: Neutrophil counts decreased [1, 3]: 3 (7.0) count (percentage)
- TRAE, ≥ Grade 3: Platelet counts decreased [1, 3]: 0 count (percentage)
- TRAE, ≥ Grade 3: Prolonged QT interval [1, 3]: 12 (27.9) count (percentage)
- TRAE, ≥ Grade 3: Proteinuria [1, 3]: 0 count (percentage)
- TRAE, ≥ Grade 3: Rash [1, 3]: 3 (7.0) count (percentage)
- TRAE, ≥ Grade 3: Vomiting [1, 3]: 0 count (percentage)
- TRAE, ≥ Grade 3: Weight loss [1, 3]: 0 count (percentage)
- TRAE, ≥ Grade 3: White blood cell counts decreased [1, 3]: 1 (2.3) count (percentage)
- TRAE, All: ALT increased [1, 4]: 52 (31.5) count (percentage)
- TRAE, All: AST increased [1, 4]: 52 (31.5) count (percentage)
- TRAE, All: Anemia [1, 4]: 14 (8.5) count (percentage)
- TRAE, All: Any [1, 4]: 161 (97.6) count (percentage)
- TRAE, All: Blood creatinine increased [1, 4]: 33 (20.0) count (percentage)
- TRAE, All: Decreased appetite [1, 4]: 25 (15.2) count (percentage)
- TRAE, All: Decreased lymphocyte counts [1, 4]: 5 (3.0) count (percentage)
- TRAE, All: Diarrhea [1, 4]: 125 (75.8) count (percentage)
- TRAE, All: Fatigue [1, 4]: 22 (13.3) count (percentage)
- TRAE, All: Hypertension [1, 4]: 22 (13.3) count (percentage)
- TRAE, All: Hypoalbuminemia [1, 4]: 20 (12.1) count (percentage)
- TRAE, All: Hypokalemia [1, 4]: 26 (15.8) count (percentage)
- TRAE, All: Nausea [1, 4]: 37 (22.4) count (percentage)
- TRAE, All: Neutrophil counts decreased [1, 4]: 13 (7.9) count (percentage)
- TRAE, All: Platelet counts decreased [1, 4]: 12 (7.3) count (percentage)
- TRAE, All: Prolonged QT interval [1, 4]: 76 (46.1) count (percentage)
- TRAE, All: Proteinuria [1, 4]: 48 (29.1) count (percentage)
- TRAE, All: Rash [1, 4]: 88 (53.3) count (percentage)
- TRAE, All: Vomiting [1, 4]: 30 (18.2) count (percentage)
- TRAE, All: Weight loss [1, 4]: 6 (3.6) count (percentage)
- TRAE, All: White blood cell counts decreased [1, 4]: 14 (8.5) count (percentage)
- TRAE, ≥ Grade 3: ALT increased [1, 4]: 3 (1.8) count (percentage)
- TRAE, ≥ Grade 3: AST increased [1, 4]: 3 (1.8) count (percentage)
- TRAE, ≥ Grade 3: Anemia [1, 4]: 1 (0.6) count (percentage)
- TRAE, ≥ Grade 3: Any [1, 4]: 68 (41.2) count (percentage)
- TRAE, ≥ Grade 3: Blood creatinine increased [1, 4]: 2 (1.2) count (percentage)
- TRAE, ≥ Grade 3: Decreased appetite [1, 4]: 4 (2.4) count (percentage)
- TRAE, ≥ Grade 3: Decreased lymphocyte counts [1, 4]: 0 count (percentage)
- TRAE, ≥ Grade 3: Diarrhea [1, 4]: 12 (7.3) count (percentage)
- TRAE, ≥ Grade 3: Fatigue [1, 4]: 0 count (percentage)
- TRAE, ≥ Grade 3: Hypertension [1, 4]: 14 (8.5) count (percentage)
- TRAE, ≥ Grade 3: Hypoalbuminemia [1, 4]: 1 (0.6) count (percentage)
- TRAE, ≥ Grade 3: Hypokalemia [1, 4]: 4 (2.4) count (percentage)
- TRAE, ≥ Grade 3: Nausea [1, 4]: 2 (1.2) count (percentage)
- TRAE, ≥ Grade 3: Neutrophil counts decreased [1, 4]: 1 (0.6) count (percentage)
- TRAE, ≥ Grade 3: Platelet counts decreased [1, 4]: 1 (0.6) count (percentage)
- TRAE, ≥ Grade 3: Prolonged QT interval [1, 4]: 26 (15.8) count (percentage)
- TRAE, ≥ Grade 3: Proteinuria [1, 4]: 0 count (percentage)
- TRAE, ≥ Grade 3: Rash [1, 4]: 7 (4.2) count (percentage)
- TRAE, ≥ Grade 3: Vomiting [1, 4]: 2 (1.2) count (percentage)
- TRAE, ≥ Grade 3: Weight loss [1, 4]: 0 count (percentage)
- TRAE, ≥ Grade 3: White blood cell counts decreased [1, 4]: 2 (1.2) count (percentage)
- ≥ grade-3 TRAE decreased neutrophil counts ([1]; with previous immunotherapy): 7.0%
- ≥ grade-3 TRAE hypertension ([1]; with previous immunotherapy): 0%
- ≥ grade-3 TRAE prolonged QT interval ([1]; with previous immunotherapy): 27.9%
- ≥ grade-3 TRAE decreased neutrophil counts ([1]; without previous immunotherapy): 0.6%
- ≥ grade-3 TRAE hypertension ([1]; without previous immunotherapy): 8.5%
- ≥ grade-3 TRAE prolonged QT interval ([1]; without previous immunotherapy): 15.8%
- onset of inhibition of EGFR signaling pathway [2]: 2 h
